Laboratory results as given in patent US20130157261A1, “Compositions and Methods for Quantitative Histology, Calibration of Images in Fluorescence Microscopy, and ddTUNEL Analyses” (The Methodist Hospital Research Institute, priority 2011, published 2013).

Experiments:
[1] = test system: normal human astrocytes (NHA)
Description: (§1) Normal human astrocytes (NHA) were obtained from Lonza (Walkersville, Md., USA) and grown subject to their recommendations. NHA were grown to confluency in Astrocyte Cell Basal Medium supplemented with 3% FBS, Glutamine, Insulin, fhEGF, GA-1000 and ascorbic acid in 16-well Lab-Tek slide chambers (Nalge Nunc, Rochester, N.Y., USA), in a total volume of 240 μL.
NHA were incubated for 1 hour with probes before fixation. Fixation in buffered paraformaldehyde (PFA) was performed in two stages. Firstly, a […] of ice-cold 8% PFA was added to each well, then gently aspirated and the wells were twice washed with ice-cold 2% PFA and then allowed to completely fix at 4° C. After fixation, cells were washed twice in 1×PBS (Thermo Fisher Scientific, Rockford, Ill., USA). The tanks were then removed from the slides, the well area covered with Fluoromount-G (SouthernBiotech, Ill., USA), cover-slipped and sealed with nail varnish.
DNA was visualized using 1 μM Hoechst 33258 (Cat. No. H1398), mitochondrial membrane potential with 500 nM Mitotracker® Red (Dagda et al., 2009) (Cat. No. M22425), hydrogen peroxide using 5 μM H2DCFAM (Whiteman et al., 2009; Setsukinai et al., 2003) (Cat. No. D399), mitochondrial superoxide generation with 5 μM MitoSOX™ Red (Abramov et al., 2010) (Cat. No. M36008), HO. was assayed using 5 μM hydroxyphenyl fluorescein (Setsukinai et al., 2003) (HPF) (Cat. No. H36004), with reagents obtained from Molecular Probes (Eugene, Oreg., USA).
(§2) 3% FCS was present in the NHA medium throughout the time-course. To generate the time-course shown in FIG. 17A and FIG. 17B, NHA were exposed to Mitotracker, H2DCFAM and Hoechst at t=0.

Caspase-3 = conditions: NHA, 14.4 μM thimerosal, 1 hr, vs control
Description: (§3) Fixed cells were permeabilized using 1×PBS with 0.1% Triton X-100®. Hydrazine reactive aldehyde/ketones were labeled using 225 μM Biotin-XX hydrazide (Hensley, 2009) (Cat. No. B2600) and visualized using Texas Red-Avidin (Cat. No. A820). The activity of Caspase-3 in fixed, 0.1% Triton-permeabilized cells was measured using the R110-EnzChek® Assay Kit (Molecular Probes, Cat. No. E13184), and incubating cells for 1 h at 37° C. (Scott et al., 2003).
as §2

[2] = test system: normal human astrocytes (NHA); conditions: 14.4 μM thimerosal
Description: NHA were incubated for 1 hour with probes before fixation. Fixation in buffered paraformaldehyde (PFA) was performed in two stages. Firstly, a 50-4 aliquot of ice-cold 8% PFA was added to each well, then gently aspirated and the wells were twice washed with ice-cold 2% PFA and then allowed to completely fix at 4° C. After fixation, cells were washed twice in 1×PBS (Thermo Fisher Scientific, Rockford, Ill., USA). The tanks were then removed from the slides, the well area covered with Fluoromount-G (SouthernBiotech, Ill., USA), cover-slipped and sealed with nail varnish.

[3] = test system: normal human astrocytes (NHA); remark: listed apart in the source
Source text: as §2

[4] = test system: normal human astrocytes (NHA); conditions: 14.4 μM thimerosal, 1 hr, vs control (FIG. 21)
Description: as §1, §3, §2

[5] = 14.4 μM thimerosal, 1 hr, vs control (FIG. 21)

SMILES: C[CH2][Hg][S]c1ccccc1C(=O)[O-].[Na+] [Thimerosal]
- increase in HO. greater than the increase in superoxide generation ([1]; 14.4 μM thimerosal, 1 hr): ≈ 80%
- increase in superoxide generation per cell ([1]; 14.4 μM thimerosal, 1 hr): 90%
- more HO. generation per superoxide ([1]; 14.4 μM thimerosal, 1 hr, deconvolution of signals): 60%
- increase in HO. [1, 5]: 300%
- increase in internal mitochondrial steady state level of superoxide [1, 5]: ≈ 70%
- thimerosal concentration at which a loss of mitochondrial signal and of DCF was observed ([1]; 60 min, 0-14.4 μM): > 7.2 µM
- increase in Caspase-3 activity (Caspase-3): five-fold
- time at which levels of cellular DCF began to fall [2]: > 40 min
- amount of ROS (DCF) generated by mitochondria vs control mitochondria ([2]; 60 min, fit of intensity profiles): four times
- increase in ROS (DCF) ([2]; 60 min, vs control): two-fold
- increase in steady-state production of reactive oxidants (H2DCF-AM) ([2]; 1 hr, vs control): 200%
- increase in 3′OH DNA nicks [3, 5]: 300%
- increase in levels of mitochondrial DNA breaks [3, 5]: 240%
- increase in levels of oxidized bases/apurinic or apyrimidinic sites [3, 5]: 460%
- increase in levels of oxidant damaged mitochondrial DNA bases ([3]; Thimerosal treatment): five-fold
- increase in cellular hydrazine reactive carbonyls (matches superoxide increase) [4]: ≈ 70%
